According to the supplement of paper PMC7840683:
Counter-ions that a name gives are not always drawn.

System: HepaRG
Assay: LDH release cytotoxicity, % of total lysis control; higher = more cytotoxic
Settings: 48 h
In short: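 HepaRG cells from a single lot were plated on collagen I-coated 96-well plates and treated in duplicate for 48 h with eight-point half-log series of test chemicals, starting at 100 µM, in serum-free induction medium containing 0.5% DMSO. Total lysis wells were given 0.1% Triton X. LDH released into 50 µL of spent medium was measured as resorufin fluorescence with CytoTox-ONE on a Tecan Safire. Percent cytotoxicity was normalized to on-plate vehicle and total lysis controls and then averaged across duplicates.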

Oc1ccc2ccccc2c1N=Nc1ccccc1 [C.I. Solvent Yellow 14]
Settings | LDH release cytotoxicity [%]
0.031623 µM | -0.466
0.1 µM | -3.7
0.316228 µM | -3.44
1 µM | -2.66
3.16228 µM | -0.781
10 µM | -0.446
31.6228 µM | -2.17
100 µM | -3.46

COc1ccc2sc(C(=O)Nc3nnn[nH]3)c(OC(C)C)c2c1 [CI-959]
Settings | LDH release cytotoxicity [%]
0.03162 µM | -0.617
0.1 µM | -2.08
0.3162278 µM | -1.65
1 µM | -1.45
3.16228 µM | -2.51
10 µM | -2.33
31.6228 µM | 3.57
100 µM | 9.3

Cc1cc2c3c(c1)C(c1ccccc1)=NC(NC(=O)c1ccncc1)C(=O)N3CC2 (configuration not stated) [CI-1018]
Settings | LDH release cytotoxicity [%]
0.03162 µM | -1.91
0.1 µM | -1.63
0.3162278 µM | -1.51
1 µM | -2.27
3.16228 µM | -1.93
10 µM | -1.89
31.6228 µM | -2.24
100 µM | 5.94

Cc1cc(SC2C(=O)CC(CCc3ccc(N)cc3)(C(C)C)OC2=O)c(C(C)(C)C)cc1CO (configuration not stated) [CI-1029]
Settings | LDH release cytotoxicity [%]
0.03162 µM | -0.634
0.1 µM | -3.84
0.3162278 µM | -3.74
1 µM | -3.966
3.16228 µM | -4.19
10 µM | -3.49
31.6228 µM | -3.96
100 µM | -2.25

Nc1cc2c3c(c1)C(c1ccccc1)=NC(NC(=O)c1cccnc1)C(=O)N3CC2 (configuration not stated) [CI-1044]
Settings | LDH release cytotoxicity [%]
0.03162 µM | -1.32
0.1 µM | -0.234
0.3162278 µM | -1.37
1 µM | -0.0936
3.16228 µM | -0.301
10 µM | 0.515
31.6228 µM | 0.683
100 µM | 0.815

Cn1c(=O)c2c(ncn2C)n(C)c1=O [Caffeine]
Settings | LDH release cytotoxicity [%]
0.03162 µM | -1.5
0.1 µM | -0.664
0.3162278 µM | -1.14
1 µM | -0.9619
3.16228 µM | -1.02
10 µM | -0.778
31.6228 µM | -0.135
100 µM | 1.03

COCCOCC(CC1(C(=O)NC2CCC(C(=O)O)CC2)CCCC1)C(=O)Oc1ccc2c(c1)CCC2 (configuration not stated) [Candoxatril]
Settings | LDH release cytotoxicity [%]
0.03162 µM | -0.831
0.1 µM | -1.91
0.3162278 µM | -0.642
1 µM | -1.61
3.16228 µM | -1.03
10 µM | -0.79
31.6228 µM | -0.798
100 µM | 0.54

O=C1CCCCCN1 [Caprolactam]
Settings | LDH release cytotoxicity [%]
0.03162 µM | -0.496
0.1 µM | -1.92
0.3162278 µM | -1.76
1 µM | -0.953
3.16228 µM | -0.455
10 µM | -0.823
31.6228 µM | -0.101
100 µM | 1.84

O=C1C2CC=CCC2C(=O)N1SC(Cl)(Cl)Cl (configuration not stated) [Captan]
Settings | LDH release cytotoxicity [%]
0.03115 µM | -0.761
0.0985 µM | -0.69
0.311484 µM | -1.02
0.985 µM | -1.31
3.11484 µM | -1.78
9.85 µM | -0.651
31.1484 µM | 0.632
98.5 µM | 27.6

CC(=O)c1ccc2c(c1)C(NC(=O)c1ccc(F)cc1)C(O)C(C)(C)O2 (configuration not stated) [Carabersat]
Settings | LDH release cytotoxicity [%]
0.0308322 µM | -0.845
0.0975 µM | -1.53
0.308322 µM | -2.26
0.975 µM | -2.21
3.0832207 µM | -1.81
9.75 µM | -1.6
30.832207 µM | -1.02
97.5 µM | 0.388

NC(=O)N1c2ccccc2C=Cc2ccccc21 [Carbamazepine]
Settings | LDH release cytotoxicity [%]
0.03162 µM | -0.712
0.1 µM | -0.993
0.3162278 µM | -1.39
1 µM | -0.89
3.16228 µM | -0.514
10 µM | -1.28
31.6228 µM | -1.043
100 µM | 0.39

CNC(=O)Oc1cccc2ccccc12 [Carbaryl]
Settings | LDH release cytotoxicity [%]
0.03162 µM | -0.447
0.1 µM | -1.82
0.3162278 µM | -1.28
1 µM | -0.688
3.16228 µM | -0.561
10 µM | 0.0525
31.6228 µM | 0.246
100 µM | 0.543

COC(=O)Nc1nc2ccccc2[nH]1 [Carbendazim]
Settings | LDH release cytotoxicity [%]
0.03162 µM | -1.09
0.1 µM | -0.973
0.3162278 µM | -1.51
1 µM | -1.78
3.16228 µM | -1.63
10 µM | 7.25
31.6228 µM | 7.37
100 µM | 8.69

CNC(=O)Oc1cccc2c1OC(C)(C)C2 [Carbofuran]
Settings | LDH release cytotoxicity [%]
0.03162 µM | -0.0403
0.1 µM | -0.693
0.3162278 µM | -0.49
1 µM | -0.23
3.16228 µM | -0.812
10 µM | -1.07
31.6228 µM | -0.52
100 µM | 0.343

CCCCN(CCCC)SN(C)C(=O)Oc1cccc2c1OC(C)(C)C2 [Carbosulfan]
Settings | LDH release cytotoxicity [%]
0.03162 µM | -3.56
0.1 µM | -0.722
0.3162278 µM | -0.938
1 µM | -0.712
3.16228 µM | 0.429
10 µM | 0.717
31.6228 µM | -0.247
100 µM | 0.466

CC1=C(C(=O)Nc2ccccc2)SCCO1 [Carboxin]
Settings | LDH release cytotoxicity [%]
0.03162 µM | -0.0118
0.1 µM | -0.836
0.3162278 µM | -1.79
1 µM | -0.232
3.16228 µM | -1.1
10 µM | -0.0461
31.6228 µM | 3.07
100 µM | 8.14

CCOC(=O)C(Cl)Cc1cc(-n2nc(C)n(C(F)F)c2=O)c(F)cc1Cl (configuration not stated) [Carfentrazone-ethyl]
Settings | LDH release cytotoxicity [%]
0.03162 µM | -0.276
0.1 µM | -1.32
0.3162278 µM | -0.782
1 µM | -0.573
3.16228 µM | -0.524
10 µM | -0.0179
31.6228 µM | -0.285
100 µM | 1.22

CC(C)c1ccc(C(=O)N=C(N)N)cc1S(C)(=O)=O [Cariporide mesylate]
Settings | LDH release cytotoxicity [%]
0.02356 µM | -0.0357
0.0745 µM | -1.69
0.23559 µM | -0.975
0.745 µM | -1.41
2.3559 µM | -0.944
7.45 µM | -0.838
23.559 µM | -1.46
74.5 µM | -0.256

Cc1c(C(=O)O)c(O)cc2c1C(=O)c1c(O)c(C3OC(CO)C(O)C(O)C3O)c(O)c(O)c1C2=O (configuration not stated) [Carminic acid]
Settings | LDH release cytotoxicity [%]
0.03162 µM | -11.2
0.1 µM | -11.08
0.3162278 µM | -10.7
1 µM | -11.1
3.16228 µM | -11.2
10 µM | -11
31.6228 µM | -9.8
100 µM | -10.4
